Here are results for 17 sequences from publication PMC12631831, “Painting Peptides With Antimicrobial Potency Through Deep Reinforcement Learning” (Advanced Science, 2025).

Ends that are not written are not given here. Some results are limits rather than exact numbers.

One assay concerns E.coli ATCC25922. Particulars: ATCC25922, 18 h. The protocol: (§1) Four standard bacteria used for the MIC test were Escherichia coli ATCC25922, Pseudomonas aeruginosa ATCC9027, Staphylococcus aureus ATCC6538, and Bacillus subtilis ATCC6633. The testing procedures followed the Hancock methods.^[ [67] ^] The peptides were diluted in sterilized PBS to 512 µM as storage solutions. Then twofold gradient dilution was performed to make different concentrations (128, 64, 32, 16, 8, 4, 2, 1, 0.5, 0.25, and 0.125 µM) of AMPs. Each bacteria was incubated in LB broth at 37 °C until its absorbance at 625 nm reached 0.08–0.10, then diluted 10,000 times and added into a sterile 96‐well polypropylene plate (Grenier, #655201). A co‐incubation system included 100 µL peptide solution and 100 µL bacterial suspension.

Another assay has as its system P.aeruginosa ATCC9027. To be noted: ATCC9027, 18 h. As to the method: as §1
Another assay has as its system B.subtilis ATCC6633. To be noted: ATCC6633, 18 h. The protocol: as §1
In a further assay the test system is S.aureus ATCC6538. To be noted: ATCC6538, 18 h. The protocol:
as §1

In the case of DGWTMVKARYIKRFMRGLRGFHIKAA [2-1], in the assay with E.coli ATCC25922, the “MIC E.coli ATCC25922” value turned out to be 8 µM. In the assay with P.aeruginosa ATCC9027, the “MIC P.aeruginosa ATCC9027” value was > 128 µM. Further, the “MIC B.subtilis ATCC6633” value with B.subtilis ATCC6633 stood at 8 µM. Moreover, in the assay with S.aureus ATCC6538, the “MIC S.aureus ATCC6538” value turned out to be 16 µM.
Consider FFHHIFRKIHHVFKKIHRLFHH [A09], for which, in the assay with E.coli ATCC25922, the “MIC E.coli ATCC25922” value is 64 µM. The “MIC P.aeruginosa ATCC9027” value in the assay with P.aeruginosa ATCC9027 is > 128 µM. Besides, in the assay on B.subtilis ATCC6633, the “MIC B.subtilis ATCC6633” value was determined as 4 µM. In addition, the “MIC S.aureus ATCC6538” value with S.aureus ATCC6538 was found to be 8 µM.
Taken in the same sequence, the figures for GIKKWIKGAIKKLIKKVAKWIWKQ [A07] were 8 µM, 16 µM, 0.5 µM and 2 µM.
Taken in the same sequence, the figures for GIKKWIKGWAKKLIKKVAKKIAKQ [A05] were 0.5 µM, 4 µM, 0.25 µM and 1 µM.
Taken in the same sequence, the figures for GILFLKRLRILGIGKLLLLKR [S05] were > 128 µM, > 128 µM, 64 µM and 128 µM.
On to GRKKRRRRRRGGWWWKLGLRWF [A08], for which the “MIC E.coli ATCC25922” value with E.coli ATCC25922 was > 128 µM. In the assay with P.aeruginosa ATCC9027, the “MIC P.aeruginosa ATCC9027” value is > 128 µM. The “MIC B.subtilis ATCC6633” value against B.subtilis ATCC6633 is 64 µM. Besides, the “MIC S.aureus ATCC6538” value against S.aureus ATCC6538 was found to be 64 µM.
Turning to IFHHIFRGIHHIFKGIHRLWKR [A02], the “MIC E.coli ATCC25922” value against E.coli ATCC25922 was found to be 64 µM. For the same sequence, the “MIC P.aeruginosa ATCC9027” value with P.aeruginosa ATCC9027 was > 128 µM. The “MIC B.subtilis ATCC6633” value against B.subtilis ATCC6633 was found to be 4 µM. The “MIC S.aureus ATCC6538” value against S.aureus ATCC6538 was 4 µM.
In the case of IKRRIRRRPIRRRQRR [S06], the “MIC E.coli ATCC25922” value with E.coli ATCC25922 is > 128 µM. In addition, the “MIC P.aeruginosa ATCC9027” value against P.aeruginosa ATCC9027 is > 128 µM. Also, the “MIC B.subtilis ATCC6633” value against B.subtilis ATCC6633 is > 128 µM. For the same sequence, the “MIC S.aureus ATCC6538” value in the assay on S.aureus ATCC6538 was 128 µM.
As for KKQVKWLLKVWKKVGIKLGAKLPVWK [S01], in the assay with E.coli ATCC25922, the “MIC E.coli ATCC25922” value was found to be 16 µM. In the assay on P.aeruginosa ATCC9027, the “MIC P.aeruginosa ATCC9027” value was determined as 64 µM. Further, in the assay with B.subtilis ATCC6633, the “MIC B.subtilis ATCC6633” value was determined as 2 µM. Further, the “MIC S.aureus ATCC6538” value in the assay with S.aureus ATCC6538 is 2 µM.
KLKIKFKFHLKLFGLF [S09]: the “MIC E.coli ATCC25922” value in the assay with E.coli ATCC25922 is > 128 µM. Also, the “MIC P.aeruginosa ATCC9027” value with P.aeruginosa ATCC9027 was > 128 µM. In addition, in the assay with B.subtilis ATCC6633, the “MIC B.subtilis ATCC6633” value was > 128 µM. In addition, the “MIC S.aureus ATCC6538” value against S.aureus ATCC6538 turned out to be 128 µM.
Turning to KLYKYKYRKVYKKQRRR [R09], in the assay with E.coli ATCC25922, the “MIC E.coli ATCC25922” value is > 128 µM. Moreover, the “MIC P.aeruginosa ATCC9027” value with P.aeruginosa ATCC9027 was > 128 µM. The “MIC B.subtilis ATCC6633” value against B.subtilis ATCC6633 is > 128 µM. Further, the “MIC S.aureus ATCC6538” value in the assay on S.aureus ATCC6538 stood at 64 µM.
As for KWFFKWFRKHFLKWMRQYFHK [R02], the “MIC E.coli ATCC25922” value against E.coli ATCC25922 was 128 µM. In addition, the “MIC P.aeruginosa ATCC9027” value with P.aeruginosa ATCC9027 came out at 64 µM. The “MIC B.subtilis ATCC6633” value against B.subtilis ATCC6633 was determined as 4 µM. In addition, in the assay on S.aureus ATCC6538, the “MIC S.aureus ATCC6538” value was determined as 8 µM.
In the case of LWRWKLLGRISVIIGKIKAALRLWF [R06], the “MIC E.coli ATCC25922” value in the assay on E.coli ATCC25922 is > 128 µM. The “MIC P.aeruginosa ATCC9027” value against P.aeruginosa ATCC9027 was > 128 µM. Moreover, the “MIC B.subtilis ATCC6633” value against B.subtilis ATCC6633 is > 128 µM. The “MIC S.aureus ATCC6538” value against S.aureus ATCC6538 is > 128 µM.
Consider QPKKPYKPIYKKVRGVLIPFKRV [R10], for which the “MIC E.coli ATCC25922” value with E.coli ATCC25922 is > 128 µM. For the same sequence, the “MIC P.aeruginosa ATCC9027” value against P.aeruginosa ATCC9027 is > 128 µM. Further, the “MIC B.subtilis ATCC6633” value with B.subtilis ATCC6633 was > 128 µM. The “MIC S.aureus ATCC6538” value against S.aureus ATCC6538 is > 128 µM.
As to RGWFKVKMRYIKRFMRGLRGFHIKAA [2-6], the “MIC E.coli ATCC25922” value against E.coli ATCC25922 was 4 µM. For the same sequence, the “MIC P.aeruginosa ATCC9027” value against P.aeruginosa ATCC9027 came out at 16 µM. In addition, the “MIC B.subtilis ATCC6633” value in the assay on B.subtilis ATCC6633 worked out at 2 µM. Besides, the “MIC S.aureus ATCC6538” value against S.aureus ATCC6538 is 1 µM.
Taken in the same sequence, the figures for RGWTMVKARYIKRFMRGLRGFHIKAA [2-2] were 4 µM, 128 µM, 2 µM and 2 µM.
For RKRVVWGKIFFRRR [S04], the “MIC E.coli ATCC25922” value with E.coli ATCC25922 was 64 µM. Moreover, the “MIC B.subtilis ATCC6633” value against B.subtilis ATCC6633 is 64 µM.
